Laboratory results: US9809598B2 (Merck Patent GmbH, priority 2014, dated 2017)
Where a name gives a salt, the structure may show the parent alone.

Assays:
[1] = tested on: Tankyrases; settings: read-out: EC50 [M] TNKS cellular assay; DLD1 cells, 24 hours, Axin2 increase
[2] = biological target: T1, TNKS1 (Homo sapiens, UniProt O95271); experiment: TNKS1 activity ELISA (autoparsylation assay); type: biochemical; settings: GST-tagged Tnks-1 (1023-1327 aa)
T1 construct: GST-tagged Tnks-1 (1023-1327 aa, prepared in-house); made in house
T1 sequence (O95271 1023-1327): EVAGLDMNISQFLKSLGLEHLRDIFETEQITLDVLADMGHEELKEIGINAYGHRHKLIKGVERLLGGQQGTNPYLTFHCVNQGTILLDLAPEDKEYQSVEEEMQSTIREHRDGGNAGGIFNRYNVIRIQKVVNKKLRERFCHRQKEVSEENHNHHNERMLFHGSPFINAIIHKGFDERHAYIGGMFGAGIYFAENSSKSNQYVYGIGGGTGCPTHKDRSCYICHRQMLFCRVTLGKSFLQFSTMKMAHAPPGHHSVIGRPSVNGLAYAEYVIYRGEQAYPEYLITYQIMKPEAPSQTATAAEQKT
Outline: (§1)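 GST-tagged TNKS1 or TNKS2 captured on glutathione plates and allowed to auto-PARsylate with biotinylated NAD with or without compound. Biotin-ADP-ribosylated enzyme detected by streptavidin-HRP and luminescence; IC50 relative to inhibitor-free reaction.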

[3] = biological target: T2, PARP-1 (Homo sapiens, UniProt P09874); experiment: PARP-1 autoparsylation assay (HTRF); type: biochemical; settings: His-tagged Parp-1, autoparsylation HTRF
T2 construct: purchased Enzo Life Sciences GmbH, Lörrach, Germany
T2 sequence (P09874 whole entry): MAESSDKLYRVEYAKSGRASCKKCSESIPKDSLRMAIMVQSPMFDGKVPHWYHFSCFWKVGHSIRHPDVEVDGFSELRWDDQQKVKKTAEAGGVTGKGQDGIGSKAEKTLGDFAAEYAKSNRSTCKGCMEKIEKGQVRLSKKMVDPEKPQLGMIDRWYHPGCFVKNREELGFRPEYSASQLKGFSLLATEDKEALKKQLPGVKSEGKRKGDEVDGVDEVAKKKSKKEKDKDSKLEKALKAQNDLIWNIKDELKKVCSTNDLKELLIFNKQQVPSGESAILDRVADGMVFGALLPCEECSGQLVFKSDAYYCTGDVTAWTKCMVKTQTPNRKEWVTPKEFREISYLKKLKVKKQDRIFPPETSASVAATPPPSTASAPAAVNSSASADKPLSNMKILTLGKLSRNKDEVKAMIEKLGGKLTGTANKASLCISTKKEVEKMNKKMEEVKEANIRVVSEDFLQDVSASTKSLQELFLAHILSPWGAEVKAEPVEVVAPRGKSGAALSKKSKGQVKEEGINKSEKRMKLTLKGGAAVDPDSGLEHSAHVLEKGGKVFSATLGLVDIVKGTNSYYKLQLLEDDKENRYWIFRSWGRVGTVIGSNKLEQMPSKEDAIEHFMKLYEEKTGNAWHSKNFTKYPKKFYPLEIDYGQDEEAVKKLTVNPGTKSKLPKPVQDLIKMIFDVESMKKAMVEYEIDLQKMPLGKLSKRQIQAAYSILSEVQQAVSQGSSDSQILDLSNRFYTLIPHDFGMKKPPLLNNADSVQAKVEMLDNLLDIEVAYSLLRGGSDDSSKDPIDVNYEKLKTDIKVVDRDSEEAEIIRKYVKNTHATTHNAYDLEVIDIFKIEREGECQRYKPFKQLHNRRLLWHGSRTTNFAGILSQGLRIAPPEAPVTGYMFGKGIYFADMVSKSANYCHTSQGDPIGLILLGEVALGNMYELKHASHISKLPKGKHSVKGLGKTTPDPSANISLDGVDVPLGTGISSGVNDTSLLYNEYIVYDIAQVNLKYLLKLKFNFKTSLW
Outline: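 His-tagged enzyme auto-modifies itself using biotinylated NAD/NAD; product detected by TR-FRET between cryptate anti-His antibody and Xlent-streptavidin, as emission ratio.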

[4] = biological target: T3, TNKS2 (Homo sapiens, UniProt Q9H2K2); experiment: TNKS2 activity ELISA (autoparsylation assay); type: biochemical; settings: GST-tagged Tnks-2 (873-1166 aa); read-out: IC50 [M] TNKS2 ELISA
T3 construct: GST-tagged Tnks-2 (873-1166 aa, prepared in-house); made in house
T3 sequence (Q9H2K2 873-1166): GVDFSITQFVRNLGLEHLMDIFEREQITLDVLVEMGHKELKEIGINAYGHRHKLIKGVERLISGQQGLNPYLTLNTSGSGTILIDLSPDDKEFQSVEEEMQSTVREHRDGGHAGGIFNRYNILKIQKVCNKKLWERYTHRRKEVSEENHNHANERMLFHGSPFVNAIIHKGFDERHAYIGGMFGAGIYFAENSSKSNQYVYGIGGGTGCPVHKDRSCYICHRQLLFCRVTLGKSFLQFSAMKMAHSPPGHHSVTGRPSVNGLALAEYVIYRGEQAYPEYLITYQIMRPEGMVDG
Outline: as §1

SMILES	EC50 [1]	IC50 [2]	IC50 [3]	IC50 [4]
CC(C)n1cc(C(=O)C2CCN(C(=O)CCCc3cn4cccc4c(=O)[nH]3)CC2)cn1 [Compound C210, 3-{4-[4-(1-Isopropyl-1H-pyrazole-4-carbonyl)-piperidin-1-yl]-4-oxo-butyl}-2H-pyrrolo[1,2-a]pyrazin-1-one]	3.6e-09 M	0.38 nM	7500 nM	3.2e-10 M
CCn1cc(C(=O)C2CCN(C(=O)CCCc3nc4c(cnn4C)c(=O)[nH]3)CC2)cn1 [Compound C213, 6-{4-[4-(1-Ethyl-1H-pyrazole-4-carbonyl)-piperidin-1-yl]-4-oxo-butyl}-1-methyl-1,5-dihydro-pyrazolo[3,4-d]pyrimidin-4-one]	8.6e-08 M	1.2 nM	11000 nM	5.2e-10 M
CCn1cc(C(=O)C2CCN(C(=O)CCCc3nn4cc(F)cc4c(=O)[nH]3)CC2)cn1 [Compound C215, 2-{4-[4-(1-Ethyl-1H-pyrazole-4-carbonyl)-piperidin-1-yl]-4-oxo-butyl}-6-fluoro-3H-pyrrolo[2,1-f][1,2,4]triazin-4-one]	1.8e-08 M	1.5 nM	5000 nM	1.4e-09 M
CCn1cc(C(=O)C2CCN(C(=O)CCCc3nc4c(C)scc4c(=O)[nH]3)CC2)cn1 [Compound C216, 2-{4-[4-(1-Ethyl-1H-pyrazole-4-carbonyl)-piperidin-1-yl]-4-oxo-butyl}-7-methyl-3H-thieno[3,4-d]pyrimidin-4-one]	5.2e-08 M	2.5 nM	1500 nM	1.3e-09 M
Cc1cc2c(=O)[nH]c(CCCC(=O)N3CCC(C(=O)c4cnn(C(C)C)c4)CC3)cn2n1 [Compound C217, 6-{4-[4-(1-Isopropyl-1H-pyrazole-4-carbonyl)-piperidin-1-yl]-4-oxo-butyl}-2-methyl-5H-pyrazolo[1,5-a]pyrazin-4-one]	3e-08 M	2 nM	6600 nM	2.7e-09 M
CC(C)n1cc(C(=O)C2CCN(C(=O)CCCc3nn4cccc4c(=O)[nH]3)CC2)cn1 [Compound C219, 2-{4-[4-(1-Isopropyl-1H-pyrazole-4-carbonyl)-piperidin-1-yl]-4-oxo-butyl}-3H-pyrrolo[2,1-f][1,2,4]triazin-4-one]	2.4e-08 M	2 nM	25000 nM	1.2e-09 M
Cc1cc2c(=O)[nH]c(CCCC(=O)N3CCC(C(=O)c4cnn(C(C)C)c4)CC3)nn2c1 [Compound C220, 2-{4-[4-(1-Isopropyl-1H-pyrazole-4-carbonyl)-piperidin-1-yl]-4-oxo-butyl}-6-methyl-3H-pyrrolo[2,1-f][1,2,4]triazin-4-one]	4e-08 M	4.2 nM	6200 nM	3.7e-09 M
CC(C)n1cc(C(=O)C2CCN(C(=O)CCCc3nn4cc(F)cc4c(=O)[nH]3)CC2)cn1 [Compound C221, 6-Fluoro-2-{4-[4-(1-isopropyl-1H-pyrazole-4-carbonyl)-piperidin-1-yl]-4-oxo-butyl}-3H-pyrrolo[2,1-f][1,2,4]triazin-4-one]	2.7e-08 M	2.1 nM	1900 nM	2e-09 M
CCn1cc(C(=O)C2CCN(C(=O)CCCc3nn4c(C)ccc4c(=O)[nH]3)CC2)cn1 [Compound C222, 2-{4-[4-(1-Ethyl-1H-pyrazole-4-carbonyl)-piperidin-1-yl]-4-oxo-butyl}-7-methyl-3H-pyrrolo[2,1-f][1,2,4]triazin-4-one]	2.6e-09 M	0.24 nM	1200 nM	2.9e-10 M
Cc1ccc2c(=O)[nH]c(CCCC(=O)N3CCC(C(=O)c4cnn(C(C)C)c4)CC3)nn12 [Compound C223, 2-{4-[4-(1-Isopropyl-1H-pyrazole-4-carbonyl)-piperidin-1-yl]-4-oxo-butyl}-7-methyl-3H-pyrrolo[2,1-f][1,2,4]triazin-4-one]	3.3e-09 M	0.6 nM	840 nM	5.1e-10 M
CCn1cc(C(=O)C2CCN(C(=O)CCCc3nc4c(C)csc4c(=O)[nH]3)CC2)cn1 [Compound C224, 2-{4-[4-(1-Ethyl-1H-pyrazole-4-carbonyl)-piperidin-1-yl]-4-oxo-butyl}-7-methyl-3H-thieno[3,2-d]pyrimidin-4-one trifluoroacetate]	1.8e-08 M	0.87 nM	3100 nM	7.1e-10 M
Cc1csc2c(=O)[nH]c(CCCC(=O)N3CCC(C(=O)c4cnn(C(C)C)c4)CC3)nc12 [Compound C225, 2-{4-[4-(1-Isopropyl-1H-pyrazole-4-carbonyl)-piperidin-1-yl]-4-oxo-butyl}-7-methyl-3H-thieno[3,2-d]pyrimidin-4-one]	1.4e-08 M	0.73 nM	700 nM	4e-10 M
Cc1scc2c(=O)[nH]c(CCCC(=O)N3CCC(C(=O)c4cnn(C(C)C)c4)CC3)nc12 [Compound C226, 2-{4-[4-(1-Isopropyl-1H-pyrazole-4-carbonyl)-piperidin-1-yl]-4-oxo-butyl}-7-methyl-3H-thieno[3,4-d]pyrimidin-4-one]	2.5e-08 M	1.6 nM	1800 nM	9.5e-10 M
COc1ccc(C(=O)C2CCN(C(=O)CCCc3nc4c(c(=O)[nH]3)CCCC4)CC2)cc1 [Compound C227, 2-{4-[4-(4-Methoxy-benzoyl)-piperidin-1-yl]-4-oxo-butyl}-5,6,7,8-tetrahydro-3H-quinazolin-4-one]	3.7e-09 M	0.66 nM	410 nM	4.2e-10 M
CC(C)n1cc(C(=O)C2CCN(C(=O)CCCc3nc4c(c(=O)[nH]3)COCC4)CC2)cn1 [Compound C229, 2-{4-[4-(1-Isopropyl-1H-pyrazole-4-carbonyl)-piperidin-1-yl]-4-oxo-butyl}-3,5,7,8-tetrahydro-pyrano[4,3-d]pyrimidin-4-one]	1.6e-06 M	23 nM	24000 nM	2.3e-09 M
Cn1cc(C(=O)C2CCN(C(=O)CCCc3nc4c(c(=O)[nH]3)CCCC4)CC2)cn1 [Compound C230, 2-{4-[4-(1-Methyl-1H-pyrazole-4-carbonyl)-piperidin-1-yl]-4-oxo-butyl}-5,6,7,8-tetrahydro-3H-quinazolin-4-one]	4.7e-08 M	5.1 nM	1800 nM	2.1e-09 M
COc1ccc(C(=O)C2CCN(C(=O)CCCc3cn4nc(C)cc4c(=O)[nH]3)CC2)cn1 [Compound C231, 6-{4-[4-(6-Methoxy-pyridine-3-carbonyl)-piperidin-1-yl]-4-oxo-butyl}-2-methyl-5H-pyrazolo[1,5-a]pyrazin-4-one]	5.4e-09 M	0.36 nM	4500 nM	5.4e-10 M
N#Cc1cc(C2CCN(C(=O)CCCc3nc4c(c(=O)[nH]3)CCCC4)CC2)cnc1N [Compound C232, 6-Amino-1′-[4-(4-oxo-3,4,5,6,7,8-hexahydro-quinazolin-2-yl)-butyryl]-1′,2′,3′,4′,5′,6′-hexahydro-[3,4′]bipyridinyl-5-carbonitrile]	5.6e-08 M	20 nM	2700 nM	5.7e-09 M
CCn1cc(C(=O)C2CCN(C(=O)CCCc3nn4cc(C)cc4c(=O)[nH]3)CC2)cn1 [Compound C233, 2-{4-[4-(1-Ethyl-1H-pyrazole-4-carbonyl)-piperidin-1-yl]-4-oxo-butyl}-6-methyl-3H-pyrrolo[2,1-f][1,2,4]triazin-4-one]	5.4e-08 M	1.2 nM	5300 nM	2.3e-09 M
Cc1ccc(C(=O)C2CCN(C(=O)CCCc3nc4c(cnn4C)c(=O)[nH]3)CC2)cc1 [Compound C234, 1-Methyl-6-{4-[4-(4-methyl-benzoyl)-piperidin-1-yl]-4-oxo-butyl}-1,5-dihydro-pyrazolo[3,4-d]pyrimidin-4-one]	1.6e-08 M	0.66 nM	18000 nM	3e-10 M
Cc1ccc(C(=O)C2CCN(C(=O)CCCc3nn4cccc4c(=O)[nH]3)CC2)cc1 [Compound C235, 2-{4-[4-(4-Methyl-benzoyl)-piperidin-1-yl]-4-oxo-butyl}-3H-pyrrolo[2,1-f][1,2,4]triazin-4-one]	3.9e-09 M	0.57 nM	3000 nM	3.9e-10 M
Cn1ncc2c(=O)[nH]c(CCCC(=O)N3CCC(C(=O)c4ccc(Cl)cc4)CC3)nc21 [Compound C236, 6-{4-[4-(4-Chloro-benzoyl)-piperidin-1-yl]-4-oxo-butyl}-1-methyl-1,5-dihydro-pyrazolo[3,4-d]pyrimidin-4-one]	2.1e-08 M	0.48 nM	10000 nM	2.4e-10 M
O=C(c1ccc(Cl)cc1)C1CCN(C(=O)CCCc2nn3cccc3c(=O)[nH]2)CC1 [Compound C237, 2-{4-[4-(4-Chloro-benzoyl)-piperidin-1-yl]-4-oxo-butyl}-3H-pyrrolo[2,1-f][1,2,4]triazin-4-one]	1e-08 M	0.66 nM	10000 nM	3e-10 M
Cn1cc(C(=O)C2CCN(C(=O)CCCc3nn4c(F)c(F)cc4c(=O)[nH]3)CC2)cn1 [Compound C238, 6,7-Difluoro-2-{4-[4-(1-methyl-1H-pyrazole-4-carbonyl)-piperidin-1-yl]-4-oxo-butyl}-3H-pyrrolo[2,1-f][1,2,4]triazin-4-one]	5.6e-08 M	1.5 nM	4100 nM	1.5e-09 M
